# Experimental data as given in ChEMBL document CHEMBL1770068, “Pharmacophore-based virtual screening and Bayesian model for the identification of potential human leukotriene A4 hydrolase inhibitors” (Eur J Med Chem, 2011).
# Molecular target: T1, Leukotriene A-4 hydrolase (Homo sapiens, UniProt P09960)
# T1 sequence (P09960 whole entry): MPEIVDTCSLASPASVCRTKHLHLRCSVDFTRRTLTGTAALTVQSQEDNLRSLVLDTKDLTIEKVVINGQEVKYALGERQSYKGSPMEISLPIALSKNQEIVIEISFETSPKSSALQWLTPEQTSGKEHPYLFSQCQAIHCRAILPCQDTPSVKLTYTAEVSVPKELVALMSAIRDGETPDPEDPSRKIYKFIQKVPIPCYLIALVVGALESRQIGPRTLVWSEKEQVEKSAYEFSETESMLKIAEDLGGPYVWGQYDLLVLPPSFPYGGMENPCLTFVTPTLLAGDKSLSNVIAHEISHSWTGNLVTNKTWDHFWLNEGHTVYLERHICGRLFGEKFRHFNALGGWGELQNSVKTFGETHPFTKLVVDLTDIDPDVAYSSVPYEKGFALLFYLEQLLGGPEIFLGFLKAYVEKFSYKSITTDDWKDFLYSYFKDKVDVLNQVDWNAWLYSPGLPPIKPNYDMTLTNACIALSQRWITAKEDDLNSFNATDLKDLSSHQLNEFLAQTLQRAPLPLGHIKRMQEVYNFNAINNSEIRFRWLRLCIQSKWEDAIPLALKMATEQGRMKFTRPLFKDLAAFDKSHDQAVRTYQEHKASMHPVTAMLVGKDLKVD
row,SMILES,IC50 [nM]
1,O=C(O)c1ccc(CN2CC3CCCC2C(Nc2ccc(Oc4ccc(-c5ccccc5)cc4)cc2)C3)cc1 (stereo not given),5
2,CC(NC(=O)C(CC(=O)O)Cc1ccccc1)C(=O)O (stereo not given),300
3,O=C(CC(Cc1ccccc1)C(=O)N1CCCCC1C(=O)O)NO (stereo not given),1800

# More lines, in order of falling IC50, values ahead:
row,IC50 [nM],SMILES
1,9,O=C(O)c1ccc(CN2CC3CCCC2C(Nc2ccc(Oc4nc5ccccc5s4)cc2)C3)cc1 (stereo not given)
2,0.5,CN(CCCOc1ccc(Oc2ccc(-c3ccccc3)cc2)cc1)CCC(=O)O
